US12527779B2, “Prostaglandin E2 (PGE2) EP4 receptor antagonists” (Domain Therapeutics, priority 2019, dated 2026)

Experiments:
[1] = target: T1, human EP4 (hEP4) receptor (Homo sapiens, UniProt P35408); assay: In vitro human EP4 functional antagonist activity using BRET biosensors (cAMP EPAC biosensor, TCS2510 stimulation); type: cell-based; conditions: antagonist activity vs EC60 TCS2510, hEP4 in HEK-293 T cells
T1 construct: expressed in transfected cells; host or cells: HEK-293 T cells, transient co-transfection with polyethylenimine
Procedure, shortened: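 Antagonism measured as inhibition of EC60 TCS2510-induced cAMP BRET signal (EPAC luciferase/GFP sensor) in transiently hEP4-expressing HEK-293T cells, following 5 min compound preincubation and 10 min luminescence recording. Plates equilibrated 1 h at 22 °C in HEPES buffer; 10 concentrations over 4.5 logs, duplicate in two independent experiments, sigmoidal variable-slope IC50.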

CT26 tumor cells = assay: In vivo anti-tumoral activity in a CT26 tumor model; parameters: species or system BALB/c mice; conditions: Example 25 150 mg/kg po BID combined with anti-PD-1 antibody 200 μg/mouse iv Q3D; 12 mice per group
Method: (§1) CT26 tumor cells were maintained in vitro as a monolayer culture in RPM11640 medium supplemented with 10% fetal bovine serum at 37° C. in an atmosphere of 5% CO2 in air. The cells were routinely subcultured twice weekly by trypsin-EDTA treatment. The cells in an exponential growth phase were harvested and counted for tumor inoculation.
Female BALB/c mice were inoculated subcutaneously in the right rear flank region with CT26 tumor cells (5×10^5) in 0.1 ml of PBS for tumor development on day 0. Tumor volumes were measured thrice per week in two dimensions using a caliper, and the volume was expressed in mm^3 using the formula: “V=(L×W×W)/2”, where V is tumor volume, L is tumor length (the longest tumor dimension) and W is tumor width (the longest tumor dimension perpendicular to L). […]
Animals were checked daily for morbidity and mortality. During routine monitoring, the animals were checked for any effects on tumor growth and treatments on behavior such as mobility, food and water consumption, body weight gain/loss (body weights were measured thrice per week), eye/hair matting and any other abnormalities. […] The body weights and tumor volumes were monitored by using StudyDirector™ software (version 3.1.399.19).

Pan02 tumor cells = assay: In vivo anti-tumoral activity of Example 25 in a Pan02 tumor model; parameters: species or system C57BL/6 mice
Method: as §1, with “Pan02” for “CT26”
Female C57BL/6 mice were inoculated subcutaneously in the right rear flank region with Pan02 tumor cells (3×10^6) in 0.1 ml of PBS for tumor development on day 0. Tumor volumes were measured thrice per week in two dimensions using a caliper, and the volume was expressed in mm^3 using the formula: “V=(L×W×W)/2”, where V is tumor volume, L is tumor length (the longest tumor dimension) and W is tumor width (the longest tumor dimension perpendicular to L). When the mean tumor size reached approximately 100 mm^3, mice were randomly allocated into groups (10 mice per group) and treated with either a control antibody (rIgG2a(2A3), 200 μg/mouse, iv, Q3D) or an anti-PD-1 antibody (RPM1-14, 200 μg/mouse, iv, Q3D), with or without the compound of Example 25 (150 mg/kg, po, 0.5% MC, BID, BID time interval: 8 h) for at least 3 weeks.
Animals were checked daily for morbidity and mortality. During routine monitoring, the animals were checked for any effects on tumor growth and treatments on behavior such as mobility, food and water consumption, body weight gain/loss (body weights were measured thrice per week), eye/hair matting and any other abnormalities. Dosing as well as tumor and body weight measurements were conducted in a Laminar Flow Cabinet. The body weights and tumor volumes were monitored by using StudyDirector™ software (version 3.1.399.19).

T1 sequence (P35408 whole entry): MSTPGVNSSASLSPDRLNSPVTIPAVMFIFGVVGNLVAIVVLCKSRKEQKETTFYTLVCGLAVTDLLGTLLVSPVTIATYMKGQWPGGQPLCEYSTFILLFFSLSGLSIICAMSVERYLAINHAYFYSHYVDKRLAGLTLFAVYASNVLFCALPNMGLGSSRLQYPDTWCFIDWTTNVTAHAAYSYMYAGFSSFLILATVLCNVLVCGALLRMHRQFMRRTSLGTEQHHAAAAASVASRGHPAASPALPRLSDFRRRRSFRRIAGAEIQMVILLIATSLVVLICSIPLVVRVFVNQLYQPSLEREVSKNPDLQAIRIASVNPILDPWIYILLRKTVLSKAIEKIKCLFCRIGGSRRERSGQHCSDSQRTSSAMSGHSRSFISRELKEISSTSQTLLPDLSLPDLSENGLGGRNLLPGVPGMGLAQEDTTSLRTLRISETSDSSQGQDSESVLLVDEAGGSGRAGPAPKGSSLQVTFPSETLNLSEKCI

CN(CCOc1ccccc1)C1(C(=O)NC2(c3ccc(C(=O)O)cc3)CC2)CCOCC1.Cl [Example 25, 4-[1-[[4-[Methyl(2-phenoxyethyl)amino]tetrahydropyran-4-carbonyl]amino]cyclopropyl]benzoic acid, hydrochloride]
IC50 [1]: < 100 nM | cases of complete tumor regression (CT26 tumor cells): 5 cases | complete tumor regression, % of the test animals (CT26 tumor cells): 42% | Tumor Growth Inhibition TGI (%) (Pan02 tumor cells; Example 25 150 mg/kg po BID + anti-PD1 antibody 0.2 mg/animal Q3D, day 0): 0.1% | Tumor Growth Inhibition TGI (%) (Pan02 tumor cells; Example 25 150 mg/kg po BID + anti-PD1 antibody 0.2 mg/animal Q3D, day 3): 10.9% | Tumor Growth Inhibition TGI (%) (Pan02 tumor cells; Example 25 150 mg/kg po BID + anti-PD1 antibody 0.2 mg/animal Q3D, day 7): 16.9% | Tumor Growth Inhibition TGI (%) (Pan02 tumor cells; Example 25 150 mg/kg po BID + anti-PD1 antibody 0.2 mg/animal Q3D, day 10): 26.1% | Tumor Growth Inhibition TGI (%) (Pan02 tumor cells; Example 25 150 mg/kg po BID + anti-PD1 antibody 0.2 mg/animal Q3D, day 14): 51.1% | Tumor Growth Inhibition TGI (%) (Pan02 tumor cells; Example 25 150 mg/kg po BID + anti-PD1 antibody 0.2 mg/animal Q3D, day 17): 62.8% | Tumor Growth Inhibition TGI (%) (Pan02 tumor cells; Example 25 150 mg/kg po BID + anti-PD1 antibody 0.2 mg/animal Q3D, day 21, hydrochloride, 150 mg/kg): 71.0% | Tumor Growth Inhibition TGI (%) (Pan02 tumor cells; Example 25 150 mg/kg po BID + rIgG2a, day 0): 0.0% | Tumor Growth Inhibition TGI (%) (Pan02 tumor cells; Example 25 150 mg/kg po BID + rIgG2a, day 3): 15.6% | Tumor Growth Inhibition TGI (%) (Pan02 tumor cells; Example 25 150 mg/kg po BID + rIgG2a, day 7): 22.5% | Tumor Growth Inhibition TGI (%) (Pan02 tumor cells; Example 25 150 mg/kg po BID + rIgG2a, day 10): 25.1% | Tumor Growth Inhibition TGI (%) (Pan02 tumor cells; Example 25 150 mg/kg po BID + rIgG2a, day 14): 51.5% | Tumor Growth Inhibition TGI (%) (Pan02 tumor cells; Example 25 150 mg/kg po BID + rIgG2a, day 17): 61.8% | Tumor Growth Inhibition TGI (%) (Pan02 tumor cells; Example 25 150 mg/kg po BID + rIgG2a, day 21, hydrochloride, 150 mg/kg): 68.5%
